Experiment [1] relates to KRAS G12V mutant NCI-H727 cells. The experiment is described as follows: Proliferation inhibition of NCI-H727 cells, 3D CellTiter-Glo assay (Method B). It is filed as cell-based, human. To be noted: Method B, 3D culture with 0.65% methylcellulose, 5 days, CTG, read-out: NCI-H727 IC50/nM. As for the experimental part:
NCI-H727 cells (Nanjing Kebai Biotechnology Co., Ltd., catalog number CBP60182, adherent, culture medium RPMI-1640+10%FBS (GIBCO, Cat#10091-148)) were cultured at 37°C, 5% CO2, and 95% humidity.
3D cell viability assay: Cells in the logarithmic growth phase were harvested and counted using a platelet counter. Cell viability was assessed using the trypan blue exclusion method to ensure a viability of over 90%. The 3D cell culture medium was prepared by adding 1% MC (methylcellulose, Sigma, Cat#M0512) to RPMI-1640 medium and 10% FBS. The cell concentration was adjusted to approximately 25,000 cells/mL using the 3D medium, and the methylcellulose (MC) content was set to 0.65%. Then, 80 µL of cell suspension was added to each 96-well clear, flat-bottomed, black-walled plate (Greiner, Cat# 655096). The cells in the 96-well plates were cultured overnight at 37°C and 5% CO2.
Drug preparation for IC50 assay: A 5-fold drug solution was prepared using culture medium. 20 µL of the drug solution was added to each well of a 96-well plate seeded with cells to achieve a working concentration of up to 10 µM, with a 3× dilution, and 9 concentrations. 2 replicate wells for each drug concentration were set. The cells in the drug-treated 96-well plates were cultured at 37°C and 5% CO2 for additional 5 days, then CTG assay (CellTiter-Glo® Luminescent Cell Viability Assay (Promega, Cat#G7573)) were performed.
The cell plate was equilibrated to room temperature for 30 minutes and the CTG reagent was thawed. 50 µL of CTG solution was added to each well for detection and the plate was shaken on an orbital shaker for 5 minutes to lyse the cells. The cell plate was then placed at room temperature for 25 minutes to stabilize the cryo-luminescence signal, and the cryo-luminescence value was read (EnVision® multi-plate reader, PerkinElmer#2105).
(§1) Data was analyzed using GraphPad Prism software. The dose-response-inhibition equation was used to fit the data to obtain the dose-response curve, and the IC50 value (nM) was calculated accordingly. [formula]

The subject of experiment [2] is KRAS G12D mutant AGS cells. Description: Proliferation inhibition of AGS cells, CellTiter-Glo assay. It is filed as cell-based, human. To be noted: 3 days, CTG, read-out: AGS IC50/nM. As for the experimental part:
AGS cells (Nanjing Kebai Biotechnology Co., Ltd., catalog number CBP60476, adherent, culture medium (F12K Nutrient Mixture+10% FBS (GIBCO, Cat#10091-148) were cultured at 37°C, 5% CO2, and 95% humidity at a density of 1500 cells/well. Cells in the logarithmic growth phase were harvested and counted using a Countstar automated cell counter based on the classic trypan blue staining method to ensure cell viability was above 90%. The cell concentration was adjusted, and 80 µL of cell suspension was added to each 96-well clear flat-bottomed, black-walled plate (Greiner, Cat# 655090). The cells in the 96-well plates were then cultured at 37°C and 5% CO2.
Drug preparation for IC50 assay: A 5-fold drug solution was prepared using culture medium. 20 µL of the drug solution was added to each well of a 96-well plate seeded with cells to achieve a working concentration of up to 10 µM, with a 3 × dilution, and a total of 9 concentrations. 2 replicate wells for each drug concentration were set. The cells in the drug-treated 96-well plates were cultured at 37°C and 5% CO2 for additional 3 days and then CTG assay were performed.
The cell plate was equilibrated to room temperature for 30 minutes and the CTG reagent (CellTiter-Glo® Luminescent Cell Viability Assay (Promega, Cat# G7573)) was thawed. 50 µL of CTG solution was added to each well and the plate was shaken on an orbital shaker for 2 minutes to lyse the cells. The cell plate was placed at room temperature for 10 minutes to stabilize the cryo-luminescence signal and the cryo-luminescence value was read (EnVision® Multifunctional microplate reader, PerkinElmer #2105).
as §1

Read-outs that look alike come from different tables or passages of the source.

For the compound `CCN1CCC(=CF)C(C)(COc2nc(N3Cc4c(Cl)nnn4CCC3C)c3cc(Cl)c(-c4c(F)ccc5sc(N)c(C#N)c45)c(F)c3n2)C1` (stereo not drawn) [Example 259A], the IC50 in experiment [1] (Homo sapiens, NCI-H727, 120 h) was found to be 1.7 nM; in experiment [2] (Homo sapiens, AGS, 72 h), 3.1 nM.

As to `[2H]C([2H])([2H])N1CCC(=CF)C(C)(COc2nc(N3CCCn4nc(C(=O)N(C)C)c(Cl)c4C3)c3cc(CC)c(-c4c(F)ccc5sc(N)c(C#N)c45)c(Cl)c3n2)C1` (stereo not drawn) [Example 190], the IC50 is 3.2 nM in experiment [1] (Homo sapiens, NCI-H727, 120 h) and below 1.5 nM in experiment [2] (Homo sapiens, AGS, 72 h).

For `CN1CC/C(=C\F)[C@](C)(COc2nc(N3CCCn4nc(C(=O)N(C)C)cc4C3)c3cc(/C=C/F)c(-c4cccc5sc(N)c(C#N)c45)c(F)c3n2)C1` [Example 111], the IC50 in experiment [1] (Homo sapiens, NCI-H727, 120 h) was 54.7 nM; in experiment [2] (Homo sapiens, AGS, 72 h) it was 25.6 nM.

Turning to `CN1CC/C(=C\F)[C@](C)(COc2nc(N3CCCn4nc(N)c(C(=O)N(C)C)c4C3)c3cc(C(F)(F)F)c(-c4cccc5sc(N)c(C#N)c45)c(F)c3n2)C1` [Example 121], the IC50 in experiment [1] (Homo sapiens, NCI-H727, 120 h) amounted to 439 nM; in experiment [2] (Homo sapiens, AGS, 72 h) it was 179 nM.

As for `CN1CC/C(=C\F)[C@](C)(COc2nc(N3CCCn4nc(C(=O)N(C)C)cc4C3)c3cc(Cl)c(-c4c(F)ccc5sc(N)c(C#N)c45)c(F)c3n2)C1` (atropisomer, axis not shown; (Sa)) [Example 93B, (Sa)-5-(7-(2-amino-3-cyano-5-fluorobenzo[b]thiophene-4-yl)-6-chloro-8-fluoro-2-(((S,E)-4-(fluoromethylene)-1,3-dimethylpiperidine-3-yl)methoxy)quinazoline-4-yl)-N,N-dimethyl-5,6,7,8-tetrahydro-4H-pyrazolo[1,5-a][1,4]diazepine-2-formamide·formate], the IC50 was 191 nM in experiment [1] and 178 nM in experiment [2].

Take `CCN1CC/C(=C\F)[C@](C)(COc2nc(N3Cc4c(COC)c(C(=O)N(C)C)nn4CC[C@@H]3C)c3cc(Cl)c(-c4ncc(F)c5sc(N)c(C#N)c45)c(F)c3n2)C1` [Example 271A]: the IC50 in experiment [1] (Homo sapiens, NCI-H727, 120 h) came out at 8.7 nM; in experiment [2] (Homo sapiens, AGS, 72 h), 9.3 nM.

On to `CN1CC[C@H](C(F)F)[C@](C)(COc2nc(N3CCC[C@@](C)(O)C3)c3cc(C(F)(F)F)c(-c4cccc5sc(N)c(C#N)c45)c(F)c3n2)C1` (atropisomer, axis not shown) [Example 3A, (R)-2-amino-4-(2-(((3S,4S)-4-(difluoromethyl)-1,3-dimethylpiperidine-3-yl)methoxy)-8-fluoro-4-((R)-3-hydroxy-3-methylpiperidine-1-yl)-6-(trifluoromethyl)quinazoline-7-yl)benzo[b]thiophene-3-carbonitrile], for which the IC50 in experiment [1] (Homo sapiens, NCI-H727, 120 h) was 40.7 nM; in experiment [2] (Homo sapiens, AGS, 72 h), 112 nM.

Regarding `CCN1CC/C(=C\F)[C@](C)(COc2nc(N3Cc4c(OC)c(C(=O)N(C)C)nn4CC[C@@H]3C)c3cc(Cl)c(-c4c(F)ccc5sc(N)c(C#N)c45)c(F)c3n2)C1` (single isomer, unassigned) [Example 234A], the IC50 is below 1.5 nM in experiment [1] (Homo sapiens, NCI-H727, 120 h) and below 1.5 nM in experiment [2] (Homo sapiens, AGS, 72 h).

`Cc1cc(N)nc(-c2c(Cl)cc3c(N4Cc5cc(C(=O)N(C)C)nn5CCC4C)nc(OCC4(C)CN(C)CCC4=CF)nc3c2F)c1C(F)(F)F` (single isomer, unassigned) [Example 213A]: the IC50 in experiment [1] (Homo sapiens, NCI-H727, 120 h) was 43.1 nM; in experiment [2] (Homo sapiens, AGS, 72 h) it was 49.6 nM.

`CN1CC/C(=C\F)[C@](C)(COc2nc(N3CCCn4nc(C(=O)N(C)C)c(C#N)c4C3)c3cc(C(F)(F)F)c(-c4cccc5sc(N)c(C#N)c45)c(F)c3n2)C1` (single isomer, unassigned) [Example 119B]: the IC50 is 6.9 nM in experiment [1] (Homo sapiens, NCI-H727, 120 h) and below 1.5 nM in experiment [2] (Homo sapiens, AGS, 72 h).

Take `CCN1CC/C(=C\F)[C@](C)(COc2nc(N3Cc4c(COC)c(C(=O)N(C)C)nn4CC[C@@H]3C)c3cc(C(F)(F)F)c(-c4ncc(F)c5sc(N)c(C#N)c45)c(F)c3n2)C1` (single isomer, unassigned) [Example 230A]: the IC50 in experiment [1] (Homo sapiens, NCI-H727, 120 h) worked out at 2.2 nM; in experiment [2] (Homo sapiens, AGS, 72 h), 1.7 nM.

Turning to `CN1CC/C(=C\F)[C@](C)(COc2nc(N3CCCn4nc(C(=O)N(C)C)c(N)c4C3)c3cc(C(F)(F)F)c(-c4cccc5sc(N)c(C#N)c45)c(F)c3n2)C1` [Example 120], the IC50 was found to be 29.8 nM in experiment [1] (Homo sapiens, NCI-H727, 120 h) and 10.3 nM in experiment [2] (Homo sapiens, AGS, 72 h).

The record behind these values is EP4775577A1, “RAS INHIBITOR” (Tyligand Bioscience (Shanghai) Limited, priority 2023, dated 2025).
